This is an account of results in USRE30241E, “Esters of 3-(hydroxy or hydroxymethyl)-4-hydroxyphenyl aminomethyl ketones” (Sterling Drug Inc., priority 1970, dated 1980).

Structures are written as SMILES. Like-named read-outs stand apart in the source and are kept apart here. Where only a bound is given, the exact number is not on record here.

Data set [1] deals with carbachol- or histamine-induced bronchoconstriction. Put plainly: Bronchodilator Test Method I, anesthetized dog, intravenous activity. The data set is classed as in vivo. As to conditions: Canis lupus familiaris; for inhibition in vivo at 0.002 mg/kg: 2 mcg/kg i.v.; for inhibition in vivo at 0.005 mg/kg: 5 mcg/kg i.v.; for inhibition in vivo at 0.02 mg/kg: 20 mcg/kg i.v.; for inhibition in vivo at 0.04 mg/kg: 40 mcg/kg i.v. The essentials:
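Pentobarbital-anesthetized (30 mg/kg i.v.), open-chest, artificially ventilated dogs were given i.v. carbachol (4-6 µg/kg) or histamine diphosphate (35-45 µg/kg). Test compound was given i.v. mixed with, after, or 1-10 min before the constrictor.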

Data set [2] can be described thus: Stability of test solutions. To be noted: ethylenediaminetetraacetic acid added; distilled water or saline solutions.
Data set [3] concerns diastolic blood pressure. The experiment in a line: Effect on diastolic blood pressure in the anesthetized dog. It is filed as in vivo. The procedure: The effect of a rapid intravenous injection on the heart rate the heart rate was conducted in anesthetized dogs under normal respiration. A few open-chest dogs were also tested. Increase in heart rate was measured by using an electrocardiograph attached to the dog. Readings were taken every 0.5-1 minute for the first 10 minutes and every 2-5 minutes thereafter until recovery. In some cases, several doses and more than one compound were tested alternately in the same dog. The blood pressure effect was simultaneously recorded.

The subject of data set [4] is carbachol- or histamine-induced bronchoconstriction. Put plainly: Bronchodilator Test Method I, anesthetized dog, intraduodenal activity. It is filed as in vivo. As to conditions: Canis lupus familiaris, read-out: Bronchodilation; for inhibition in vivo at 0.02 mg/kg: 20 mcg/kg (salt) intraduodenal; for inhibition in vivo at 0.08 mg/kg: 80 mcg/kg (salt) intraduodenal; for inhibition in vivo at 0.16 mg/kg: 160 mcg/kg (salt) intraduodenal. The method in brief:
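Pentobarbital-anesthetized (30 mg/kg i.v.) open-chest dogs of 9-18 kg, artificially ventilated; airway pressure recorded via tracheal cannula transducer. Test solution injected intraduodenally; from 5 min, i.v. carbachol (4-6 μg/kg) or histamine diphosphate (35-45 μg/kg) challenges every 30-60 min gauged degree and duration of bronchodilation.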

The subject of data set [5] is guinea pig bronchioles constricted by carbachol. The experiment in a line: Bronchodilator Test Method II, in vitro perfused guinea pig lung. The procedure: In this method bronchodilator activity in vitro was determined by testing the effect of graded doses of the test compounds on guinea pig bronchioles constricted by carbachol, using the technique reported by Sollman and von Oettingen, Proc. Soc, Exp. Biol. Med., 25,692 (1928) as modified by Tainter, Pedden, and James, J. Pharm. Exp. Ther., 51, 371 (1934) and by Luduena, von Euler, Tullar, and Lands, Arch. intern. Pharmacol., III, 392 (1957).

Data set [6] has as its system heart rate. Put plainly: Cardiovascular studies: effect on the heart rate in the anesthetized dog. The data set is classed as in vivo. The method in brief: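 Anesthetized dogs, mostly spontaneously breathing, some open-chest, given rapid intravenous injections. Heart rate by electrocardiograph with blood pressure recorded simultaneously, every 0.5-1 minute for 10 minutes then every 2-5 minutes until recovery; several doses or compounds sometimes tested alternately in one dog.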

Where [7] appears, read: 5 min, 5 min, read-out: Bronchodilatation.
The mark [8] stands for this setting: 0.5 h, 30 min, read-out: Bronchodilatation.
Where [9] appears, read: 1 h, 60 min, read-out: Bronchodilatation.
The mark [10] stands for this setting: 2 h, 120 min, read-out: Bronchodilatation.

`CNCC(O)c1ccc(O)c(O)c1` (stereo not drawn) [V, 3,4-Dihydroxy-alpha-(methylaminomethyl)benzyl alcohol, reference compound]: the inhibition in vivo at 0.004 mg/kg in data set [1] (1 min, read-out: Bronchodilatation, 4 mcg/kg i.v., 1-2 min) is 0%; in data set [1] (10 min, read-out: Bronchodilatation, 4 mcg/kg i.v., 10 min), 0%. The inhibition in vivo at 0.064 mg/kg in data set [1] (1 min, read-out: Bronchodilatation, 64 mcg/kg i.v., 1-2 min) was 29%; in data set [1] (0.5 h, read-out: Bronchodilatation, 64 mcg/kg i.v., 30 min), 0%. In addition, the inhibition in vivo at 0.008 mg/kg in data set [1] (10 min, read-out: Bronchodilatation, 8 mcg/kg i.v., 10 min) is 0%; in data set [1] (0.5 h, read-out: Bronchodilatation, 8 mcg/kg i.v., 30 min), 0%. Moreover, in data set [1] (0.5 h, read-out: Bronchodilatation, 16 mcg/kg i.v., 30 min), the inhibition in vivo at 0.016 mg/kg is 5%. In addition, the “need for stabilizing agent in solution” value in data set [2] is on record as “required to stabilize them”.
Turning to `CCC(NC(C)C)C(O)c1ccc(O)c(O)c1` (stereo not drawn) [IV, 3,4-Dihydroxy-alpha-[1-(isopropylamino)-propyl]benzyl alcohol, reference compound], the inhibition in vivo at 0.002 mg/kg in data set [1] (setting [7]) is 32%; in data set [1] (setting [8]), 0%. For the same compound, the inhibition in vivo at 0.004 mg/kg in data set [1] (5 min, 4 mcg/kg i.v., 5 min, read-out: Bronchodilatation) amounted to 72%; in data set [1] (0.5 h, 4 mcg/kg i.v., 30 min, read-out: Bronchodilatation) it was 31%; in data set [1] (1 h, 4 mcg/kg i.v., 60 min, read-out: Bronchodilatation), 19%. Moreover, the inhibition in vivo at 0.008 mg/kg in data set [1] (5 min, 8 mcg/kg i.v., 5 min, read-out: Bronchodilatation) was determined as 74%; in data set [1] (0.5 h, 8 mcg/kg i.v., 30 min, read-out: Bronchodilatation), 13%; in data set [1] (1 h, 8 mcg/kg i.v., 60 min, read-out: Bronchodilatation), 13%. Further, the “need for stabilizing agent in solution” value in data set [2] is reported as “required to stabilize them”.
Regarding `COc1ccc(C(=O)Oc2ccc(C(O)CNC(C)(C)C)cc2OC(C)=O)cc1` (stereo not drawn) [Example 145, 3-acetoxy-4-(p-anisoyloxy)-alpha-(tert-butylaminomethyl)benzyl alcohol methanesulfonate], the inhibition in vivo at 0.005 mg/kg in data set [1] (setting [7]) was found to be 65%; in data set [1] (setting [8]) it was 30%; in data set [1] (setting [9]) it was 24%; in data set [1] (setting [10]), 22%. The inhibition in vivo at 0.02 mg/kg is 87% in data set [1] (setting [7]); 45% in data set [1] (setting [8]); 35% in data set [1] (setting [9]); 27% in data set [1] (setting [10]); 33% in data set [4] (5 min, 5 min); 32% in data set [4] (0.5 h, 30 min). Besides, the inhibition in vivo at 0.02 mg/kg is 32% in data set [4] (1 h, 60 min); 33% in data set [4] (2 h, 120 min); 29% in data set [4] (3 h, 180 min); 25% in data set [4] (4 h, 240 min); 23% in data set [4] (5 h, 300 min). Also, the inhibition in vivo at 0.04 mg/kg in data set [1] (setting [7]) was determined as 98%; in data set [1] (setting [8]) it was 70%; in data set [1] (setting [9]), 68%; in data set [1] (setting [10]), 42%; in data set [1] (3 h, 180 min, read-out: Bronchodilatation), 38%; in data set [1] (4 h, 240 min, read-out: Bronchodilatation), 24%. The figures for the “Mean Decrease in Diastolic Blood Pressure” value in data set [3] (1.25 meg/kg (salt) i.v.), in data set [3] (5.0 meg/kg (salt) i.v.) and in data set [3] (20 meg/kg (salt) i.v.) were 7%, 12% and 20%, respectively. Further, the inhibition in vivo at 0.08 mg/kg in data set [4] (5 min, 5 min) came to 53%; in data set [4] (0.5 h, 30 min), 48%; in data set [4] (1 h, 60 min) it was 45%; in data set [4] (2 h, 120 min) it was 49%; in data set [4] (3 h, 180 min) it was 32%; in data set [4] (4 h, 240 min), 30%. Also, the inhibition in vivo at 0.16 mg/kg in data set [4] (5 min, 5 min) amounted to 82%; in data set [4] (0.5 h, 30 min), 81%; in data set [4] (1 h, 60 min), 81%; in data set [4] (2 h, 120 min), 63%; in data set [4] (3 h, 180 min), 48%; in data set [4] (4 h, 240 min), 32%. Besides, in data set [4] (5 h, 300 min), the inhibition in vivo at 0.16 mg/kg stood at 37%. Further, the ED50 in data set [5] (carbachol (Doryl) 1:5 million) was 0.25 µg (base). The “Duration, Mean” value in data set [5] (dose 1 mcg (base)) is given as > 72 min. Moreover, the results for the “Mean Maximal Increase in the Heart Rate” value in data set [6] (1.25 mcg/kg (salt) i.v.), in data set [6] (5.0 mcg/kg (salt) i.v.) and in data set [6] (20 mcg/kg (salt) i.v.) were 9%, 13% and 27%, respectively.
